One compound from ChEMBL document CHEMBL1146719, “Lysyl 4-aminobenzoic acid derivatives as potent small molecule mimetics of plasminogen kringle 5” (Bioorg Med Chem Lett, 2004) can be followed below.

Peptide text beside a SMILES is read from it.

The test is filed under the species Homo sapiens. The test is described as follows: Inhibition of VEGF-stimulated migration of human microvascular endothelial cells. The following applies: Endothelial cell. It is filed as functional, cell-based.

With `CC(=O)N[C@@H](CCCCN)C(=O)N[C@@H](CC(C)C)C(=O)N[C@@H](Cc1ccc(O)cc1)C(=O)N[C@@H](CC(=O)O)C(=O)O` (Ac-KLYD-OH), the IC50 turned out to be 1.2 nM. This counts as single-digit nanomolar.

One may read the IC50 as the concentration at which inhibition is half-maximal.
